This note sets out measurements from patent US8426604B2 (Janssen Pharmaceutica NV, priority 2010, dated 2013).

Molecules are shown by their SMILES.

In the experiment the target is T1, ERR1 (also known as ERR-α or ERR-1) (Homo sapiens, UniProt P11474).
T1 sequence (P11474 193-421 limits assumed): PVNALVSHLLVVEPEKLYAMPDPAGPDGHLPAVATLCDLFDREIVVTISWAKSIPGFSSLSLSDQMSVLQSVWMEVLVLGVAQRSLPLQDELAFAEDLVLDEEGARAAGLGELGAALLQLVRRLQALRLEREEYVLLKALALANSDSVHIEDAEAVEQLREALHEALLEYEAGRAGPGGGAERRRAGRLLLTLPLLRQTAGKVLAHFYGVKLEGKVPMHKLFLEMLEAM
Briefly: TR-FRET assay (disruption of co-activator peptide binding). It is filed as biochemical. The note with it: 6His-tagged ERR1LBD, GST-hSRC2 co-activator peptide; average of 3 independent experiments. Here is the method:
Time-Resolved Fluorescence Resonance Energy Transfer (TR-FRET) experiments were performed to examine the functional response of ERR1 (also known as ERR-α or ERR-1) ligands. The TR-FRET assay described herein relied on the conformation of ERR1 for binding to a co-activator peptide: when a test compound binds to ERR1 and alters its conformation, it can disrupt the binding of the co-activator peptide. The components of this homogeneous secondary assay included: the ^6His-tagged-ERR1LBD, a GST-labeled-hSRC2 co-activator polypeptide and a fluorescent donor/acceptor pair from CIS bio international htrf/bioassays (Bedford, Mass.) using both an α-GST Europium Cryptate (Eu) label and an α^6His-XL665 (allophycocyanin) fluorophore.
For TR-FRET measurements, the reaction was buffered in 25 mM Tris pH 8, 2.5 mM Hepes, 20 mM KCl, 1 mM DTT, and 0.05 mg/mL BSA (-lipids). The final concentrations of reagents were 6 nM of ERR1LBD, 6 nM GST-SRC-2 peptide, 30 nM Eu cryptate, and 7.5 nM XL665. Reactions were allowed to reach equilibrium at 25° C. for 4-18 hours before collecting data on the Analyst from LJL Biosystems (Molecular Devices Sunnyvale, Calif.). As a time-resolved method, the samples were excited at […] and emission was collected for 1 ms at both 615 and 665 nm with delays of 400 and 75 μs, respectively. Dose response curves were fitted using a hyperbolic equation and the data reported is the average of 3 independent experiments.
A general note: In TR-FRET formats the signal depends on donor and acceptor labels being close together.
The EC50 is the concentration at which the effect is half-maximal. Consider `CN(CCN1CCOCC1)C1=NC(=O)/C(=C/c2ccc3c(cnn3Cc3ccc(C(F)(F)F)cc3C(F)(F)F)c2)S1` [Compound 27, 5-[1-(2,4-Bis-trifluoromethyl-benzyl)-1H-indazol-5-ylmethylene]-2-[methyl-(2-morpholin-4-yl-ethyl)-amino]-thiazol-4-one], for which the half-maximal effective concentration (EC50) came to 21 nM.
`CN(C1=NC(=O)/C(=C/c2ccc3c(cnn3Cc3ccc(C(F)(F)F)cc3C(F)(F)F)c2)S1)C1CCNC1` (stereo not drawn) [Compound 28, 5-[1-(2,4-Bis-trifluoromethyl-benzyl)-1H-indazol-5-ylmethylene]-2-(methyl-pyrrolidin-3-yl-amino)-thiazol-4-one]: the 50% effective concentration (EC50) was 30 nM.
The figure for `CN1CCC(N(C)C2=NC(=O)/C(=C/c3ccc4c(cnn4Cc4ccc(C(F)(F)F)cc4C(F)(F)F)c3)S2)C1` (stereo not drawn) [Compound 29, 5-[1-(2,4-Bis-trifluoromethyl-benzyl)-1H-indazol-5-ylmethylene]-2-[methyl-(1-methyl-pyrrolidin-3-yl)-amino]-thiazol-4-one] is 67 nM; for `CN(CCO)C1=NC(=O)/C(=C/c2ccc3c(cnn3Cc3ccc(Cl)cc3C(F)(F)F)c2)S1` [Compound 30, 5-[1-(4-Chloro-2-trifluoromethyl-benzyl)-1H-indazol-5-ylmethylene]-2-[(2-hydroxy-ethyl)-methyl-amino]-thiazol-4-one] it is 12 nM.
The compound `CN(C[C@H](O)c1ccc(O)cc1)C1=NC(=O)/C(=C/c2ccc3c(cnn3Cc3ccc(Cl)cc3C(F)(F)F)c2)S1` [Compound 31, (R)-5-[1-(4-Chloro-2-trifluoromethyl-benzyl)-1H-indazol-5-ylmethylene]-2-{[2-hydroxy-2-(4-hydroxy-phenyl)-ethyl]-methyl-amino}-thiazol-4-one] registered an EC50 of 31 nM.
Take `CCN(CC)CCN(C)C1=NC(=O)/C(=C/c2ccc3c(cnn3Cc3ccc(Cl)cc3C(F)(F)F)c2)S1` [Compound 32, 5-[1-(4-Chloro-2-trifluoromethyl-benzyl)-1H-indazol-5-ylmethylene]-2-[(2-diethylamino-ethyl)-methyl-amino]-thiazol-4-one]: the EC50 is 15 nM.
`CN(CCCn1cccn1)C1=NC(=O)/C(=C/c2ccc3c(cnn3Cc3ccc(Cl)cc3C(F)(F)F)c2)S1` [Compound 33, 5-[1-(4-Chloro-2-trifluoromethyl-benzyl)-1H-indazol-5-ylmethylene]-2-[methyl-(3-pyrazol-1-yl-propyl)-amino]-thiazol-4-one] showed an EC50 of 13 nM.
In turn, `CN1CCC(CN(C)C2=NC(=O)/C(=C/c3ccc4c(cnn4Cc4ccc(Cl)cc4C(F)(F)F)c3)S2)C1` (stereo not drawn) [Compound 34, 5-[1-(4-Chloro-2-trifluoromethyl-benzyl)-1H-indazol-5-ylmethylene]-2-[methyl-(1-methyl-pyrrolidin-3-ylmethyl)-amino]-thiazol-4-one] returned a half-maximal effective concentration (EC50) of 17 nM.
In the case of `CN1CCC(N(C)C2=NC(=O)/C(=C/c3ccc4c(cnn4Cc4ccc(Cl)cc4C(F)(F)F)c3)S2)C1` (stereo not drawn) [Compound 35, 5-[1-(4-Chloro-2-trifluoromethyl-benzyl)-1H-indazol-5-ylmethylene]-2-[methyl-(1-methyl-pyrrolidin-3-yl)-amino]-thiazol-4-one], the midpoint of the response, the EC50, lay at 18 nM.
Compound `CN(CC1(CO)CC1)C1=NC(=O)/C(=C/c2ccc3c(cnn3Cc3ccc(Cl)cc3C(F)(F)F)c2)S1` [Compound 36, 5-[1-(4-Chloro-2-trifluoromethyl-benzyl)-1H-indazol-5-ylmethylene]-2-[(1-hydroxymethyl-cyclopropylmethyl)-methyl-amino]-thiazol-4-one] had an EC50 of 21 nM.
Compound `CCOC(=O)N1CCC(N(C)C2=NC(=O)/C(=C/c3ccc4c(cnn4Cc4ccc(Cl)cc4C(F)(F)F)c3)S2)CC1` [Compound 37, 4-({5-[1-(4-Chloro-2-trifluoromethyl-benzyl)-1H-indazol-5-ylmethylene]-4-oxo-4,5-dihydro-thiazol-2-yl}-methyl-amino)-piperidine-1-carboxylic acid ethyl ester] returned an EC50 of 69 nM.
As for `CN(CCC#N)C1=NC(=O)/C(=C/c2ccc3c(cnn3Cc3ccc(Cl)cc3C(F)(F)F)c2)S1` [Compound 38, 3-({5-[1-(4-Chloro-2-trifluoromethyl-benzyl)-1H-indazol-5-ylmethylene]-4-oxo-4,5-dihydro-thiazol-2-yl}-methyl-amino)-propionitrile], the EC50 worked out at 26 nM.
The figure for `C=CCN(C)C1=NC(=O)/C(=C/c2ccc3c(cnn3Cc3ccc(Cl)cc3C(F)(F)F)c2)S1` [Compound 39, 2-(Allyl-methyl-amino)-5-[1-(4-chloro-2-trifluoromethyl-benzyl)-1H-indazol-5-ylmethylene]-thiazol-4-one] is 25 nM; for `COC[C@@H]1CC(N(C)C2=NC(=O)/C(=C/c3ccc4c(cnn4Cc4ccc(C(F)(F)F)cc4C(F)(F)F)c3)S2)CN1` (stereo partly drawn) [Compound 40, 5-[1-(2,4-Bis-trifluoromethyl-benzyl)-1H-indazol-5-ylmethylene]-2-[(5-methoxymethyl-pyrrolidin-3-yl)-methyl-amino]-thiazol-4-one] it is 21 nM; for `CN(C1=NC(=O)/C(=C/c2ccc3c(cnn3Cc3ccc(C(F)(F)F)cc3C(F)(F)F)c2)S1)C1CN[C@H](CO)C1` (stereo partly drawn) [Compound 43, 5-[1-(2,4-Bis-trifluoromethyl-benzyl)-1H-indazol-5-ylmethylene]-2-[(5-hydroxymethyl-pyrrolidin-3-yl)-methyl-amino]-thiazol-4-one] it is 30 nM.
`COC[C@@H]1CC(N(C)C2=NC(=O)/C(=C/c3ccc4c(cnn4Cc4ccc(C(F)(F)F)cc4C(F)(F)F)c3)S2)CN1C` (stereo partly drawn) [Compound 44, 5-[1-(2,4-Bis-trifluoromethyl-benzyl)-1H-indazol-5-ylmethylene]-2-[(5-methoxymethyl-1-methyl-pyrrolidin-3-yl)-methyl-amino]-thiazol-4-one]: the EC50 was determined as 32 nM.
`CN(CC(O)CN)C1=NC(=O)/C(=C/c2ccc3c(cnn3Cc3ccc(Cl)cc3C(F)(F)F)c2)S1` (stereo not drawn) [Compound 45, 2-[(3-Amino-2-hydroxy-propyl)-methyl-amino]-5-[1-(4-chloro-2-trifluoromethyl-benzyl)-1H-indazol-5-ylmethylene]-thiazol-4-one] gave an EC50 of 120 nM.
In the case of `CN(Cc1cccnc1)C1=NC(=O)/C(=C/c2ccc3c(cnn3Cc3ccc(Cl)cc3C(F)(F)F)c2)S1` [Compound 46, 5-[1-(4-Chloro-2-trifluoromethyl-benzyl)-1H-indazol-5-ylmethylene]-2-(methyl-pyridin-3-ylmethyl-amino)-thiazol-4-one], the EC50 came out at 22 nM.
As to `COCCN1CCC(CN(C)C2=NC(=O)/C(=C/c3ccc4c(cnn4Cc4ccc(Cl)cc4C(F)(F)F)c3)S2)C1` (stereo not drawn) [Compound 47, 5-[1-(4-Chloro-2-trifluoromethyl-benzyl)-1H-indazol-5-ylmethylene]-2-{[1-(2-methoxy-ethyl)-pyrrolidin-3-ylmethyl]-methyl-amino}-thiazol-4-one], the concentration for a half-maximal effect (EC50) came to 17 nM.
In the case of `CN(C1=NC(=O)/C(=C/c2ccc3c(cnn3Cc3ccc(Cl)cc3C(F)(F)F)c2)S1)C1CNC1` [Compound 48, 2-(Azetidin-3-yl-methyl-amino)-5-[1-(4-chloro-2-trifluoromethyl-benzyl)-1H-indazol-5-ylmethylene]-thiazol-4-one], a half-maximal effect (EC50) was put at 43 nM.
The value for `CNCC(O)CN(C)C1=NC(=O)/C(=C/c2ccc3c(cnn3Cc3ccc(Cl)cc3C(F)(F)F)c2)S1` (stereo not drawn) [Compound 49, 5-[1-(4-Chloro-2-trifluoromethyl-benzyl)-1H-indazol-5-ylmethylene]-2-[(2-hydroxy-3-methylamino-propyl)-methyl-amino]-thiazol-4-one] was 41 nM.
`CN(CC(O)CN1CCCC1)C1=NC(=O)/C(=C/c2ccc3c(cnn3Cc3ccc(Cl)cc3C(F)(F)F)c2)S1` (stereo not drawn) [Compound 50, 5-[1-(4-Chloro-2-trifluoromethyl-benzyl)-1H-indazol-5-ylmethylene]-2-[(2-hydroxy-3-pyrrolidin-1-yl-propyl)-methyl-amino]-thiazol-4-one] returned a 50% effective concentration (EC50) of 23 nM.
The value for `CCN(CC)CCN(C)C1=NC(=O)/C(=C/c2ccc3c(c2)c(I)nn3Cc2ccc(C(F)(F)F)cc2C(F)(F)F)S1` [Compound 51, 5-[1-(2,4-Bis-trifluoromethyl-benzyl)-3-iodo-1H-indazol-5-ylmethylene]-2-[(2-diethylamino-ethyl)-methyl-amino]-thiazol-4-one] was 11 nM.
Regarding `CC(C(N)=O)N1CCC(N(C)C2=NC(=O)/C(=C/c3ccc4c(cnn4Cc4ccc(C(F)(F)F)cc4C(F)(F)F)c3)S2)CC1` (stereo not drawn) [Compound 53, 2-(4-{[-5-({1-[2,4-Bis(trifluoromethyl)benzyl]-1H-indazol-5-yl}methylidene)-4-oxo-4,5-dihydro-1,3-thiazol-2-yl](methyl)amino}piperidin-1-yl)propionamide], the half-maximal effective concentration (EC50) worked out at 24 nM.
